Experimental data published in patent US4556565A, “Sweetener composition, process for making the same, and comestibles comprising said sweetener composition” (priority 1983, dated 1985).
Where a SMILES comes first, the peptide text is derived from it.

Tests used:
[1] = Cold water solubility test (time to dissolve); type: physicochemical; settings: 15 g/100 ml of water, 10° C., magnetic stirrer (3 turns/sec)
From the text: A magnetic stirrer (3 turns/sec) was used to agitate each sample.

[2] = Residual APM in chewing gum on standing at 32° C.; type: physicochemical; settings: calcium carbonate in the chewing gum base
bacteria in the mouth = settings: cited from earlier work
[3] = cited from earlier work

SMILES	Cold water solubility of sweetener compositions [1] [s]	Stability of APM in chewing gum containing calcium carbonate [2]	Dental caries causing effect / bacterial action in the mouth (bacteria in the mouth)	Dispersibility or solubility in water [3]
COC(=O)[C@H](Cc1ccccc1)NC(=O)[C@@H](N)CC(=O)O [APM, L-aspartyl-L-phenylalanine methyl ester] (H-Asp-Phe-OMe)	900	rapidly decomposed by calcium carbonate	low dental caries causing effect	low dispersibility or solubility in water
OC[C@@H](O)[C@@H](O[C@H]1O[C@H](CO)[C@@H](O)[C@H](O)[C@H]1O)[C@H](O)[C@@H](O)CO [hydrogenated maltose]	–	–	not subjected to the bacterial action in the mouth	–
